Where a SMILES comes first, the peptide text is derived from it. Bridges are numbered along the chain shown (N, C = ends). [ ]: non-standard residue; d: D form. The star is where a group is joined. Ileψ(thiazoline)Cys = CC[C@H](C)[C@H](N)C1=N[C@H](C(=O)*)CS1; dOrn = NCCC[C@@H](N)C(=O)O
How the values were obtained:
[1] = tested on: bone marrow-derived mast cells (BMMCs); test: cytokine production from IgE/antigen-activated bone marrow-derived mast cells (ELISA); assay type: cell-based, BALB/c mice; settings: for activation of mast cells: DNP-IgE priming, DNP-BSA challenge; for production of mast cell cytokines such as TNF-a, IL-6, and IL-13: DNP-IgE/DNP-BSA
Procedure: In this study, bone marrow-derived mast cells (BMMCs) were treated with the known PDI inhibitors bacitracin and rutin, and mast cell activation was assessed. BMMCs were generated from BALB/c mice and grown in 10 ng/ml IL-3 and 10 ng/ml stem cell factor (SCF) for 4-8 weeks. One million BMMCs in triplicates were cultured with various concentrations of the PDI inhibitors Bacitracin (Bac) and Rutin (RH) for 1 day or 7 days. Some cells were activated by priming cells with DNP-IgE (Dinitrophenyl IgE) antibodies and challenging with DNP-BSA (dinitrophenyl-bovine serum albumin). Cytokine levels (IL-4, IL-13, TNF-alpha, and IL-6 in FIGS. 1A-1D, respectively) were assessed in the supernatants 24 hr later by ELISA. FIG. 1A-1D show treatment of mast cells with PDI inhibitor Bacitracin or Rutin inhibits the activation of mast cells and the production of mast cell cytokines such as TNF-a, IL-6, and IL-13. In this study, BMMCs were treated with the known PDI inhibitor PACMA-31, and mast cell activation was assessed. Bone marrow derived mast cells (BMMCs) were generated from BALB/c mice and grown in 10 ng/ml IL-3 and 10 ng/ml SCF for 4-8 weeks. 1 million BMMCs in triplicates were cultured with 30 μM PACMA-31 (Sigma-Aldrich) for 30 minutes. Some cells were activated by priming cells with DNP-IgE antibodies and challenging with DNP-BSA. Cytokine levels (IL-13, TNF-alpha, and IL-6 in FIGS. 2A-2C) were assessed in the supernatants 6 hrs later by ELISA. FIG. 2A-2C show treatment of mast cells with the specific PDI inhibitor PACMA-31 inhibits the activation of mast cells and the production of mast cell cytokines such as TNF-a, IL-6, and IL-13.

[2] = tested on: ovalbumin-induced food allergy; test: mouse model of ovalbumin-induced, mast cell-mediated food allergy; assay type: in vivo, BALB/c mice
Procedure: In this study, wild-type (Wt) mice were sensitized and challenged with ovalbumin and treated with PACMA-31 to determine whether PDI inhibition can modulate the development of food allergy. BALB/c mice were sensitized intraperitoneally (i.p.) with 50 μg ovalbumin (OVA) and 1 mg alum on day zero (d0) and d14. On day 28, some groups of mice were challenged intragastrically with 50 mg OVA once a day on 6 alternating days. Some groups of mice were treated with 300 μg PACMA-31 (P-31) intragastrically daily starting d27. […] The development of allergic diarrhea in this model is dependent on mast cell activation. […] In FIGS. 3A-3F, Wt Cont=wild-type, Control; Wt OVA=wild-type, ovalbumin; Wt+P31 Cont=wild-type, PACMA-31, Control; and Wt+P31 OVA=wild-type, PACMA-31, ovalbumin. FIG. 3A-3F show oral treatment of mice undergoing food allergy with PACMA-31 results in attenuation of the allergic response including mast cell protease levels which indicate mast cell activation (mMCP-1), OVA-IgE levels, and Th2 cytokine levels.

[3] = known property; cited from earlier work
[4] = wild-type mice, ovalbumin-induced food allergy

Compound | activation of mast cells ([1]; BMMCs cultured with various concentrations for 1 day or 7 days, FIGS. 1A-1D) | production of mast cell cytokines such as TNF-a, IL-6, and IL-13 ([1]; BMMCs cultured with various concentrations for 1 day or 7 days, supernatants 24 hr later by ELISA, FIGS. 1A-1D) | activation of mast cells ([1]; BMMCs cultured with 30 μM for 30 minutes, FIGS. 2A-2C) | production of mast cell cytokines such as TNF-a, IL-6, and IL-13 ([1]; BMMCs cultured with 30 μM for 30 minutes, supernatants 6 hrs later by ELISA, FIGS. 2A-2C) | mast cell protease levels which indicate mast cell activation (serum mMCP-1) ([2]; 300 μg intragastrically daily from d27, OVA-sensitized and challenged mice, FIG. 3A) | serum OVA-IgE levels ([2]; 300 μg intragastrically daily from d27, OVA-sensitized and challenged mice, FIG. 3B) | Th2 cytokine levels in supernatants of spleen cells restimulated with OVA ([2]; 300 μg intragastrically daily from d27, OVA-sensitized and challenged mice, FIGS. 3C-3F) | allergen-specific IgE [2, 4] | development of food allergy symptoms [2, 4] | mast cell activation [2, 4] | allergic diarrhea ([2]; wild-type mice, ovalbumin-induced food allergy, observed one hour after 6th challenge) | oral bioavailability [3]
CC[C@H](C)[C@H](N)C1=N[C@H](C(=O)N[C@@H](CC(C)C)C(=O)N[C@H](CCC(=O)O)C(=O)N[C@H](C(=O)N[C@H]2CCCCNC(=O)[C@H](CC(N)=O)NC(=O)[C@@H](CC(=O)O)NC(=O)[C@H](Cc3cnc[nH]3)NC(=O)[C@@H](Cc3ccccc3)NC(=O)[C@H]([C@@H](C)CC)NC(=O)[C@@H](CCCN)NC2=O)[C@@H](C)CC)CS1 [Bacitracin, bacitracin] ({Ileψ(thiazoline)Cys}-L[dE]IK[dOrn]I[dF]H[dD]N; lactam 4-C) | inhibits | inhibits |  |  |  |  |  |  |  |  |  | 
C#CC(=O)N(c1ccc(OC)cc1OC)C(C(=O)NCC(=O)OCC)c1cccs1 (stereo not drawn) [PACMA-31, N-(2,4-dimethoxyphenyl)-N-(1-oxo-2-propyn-1-yl)-2-(2-thienyl)glycylglycine ethyl ester] |  |  | inhibits | inhibits | attenuation | attenuation | attenuation | decreases | significant attenuation | decreases | decreases | orally bioavailable
